Measurements published in US12459974B2, “Bicyclic peptide ligands specific for Nectin-4” (priority 2018, dated 2025).
*1 amine or outer side, *2 acyl side, *3 side chain or, on linkers, in order; H or OH if unused. Where a SMILES comes first, the peptide text is derived from it. Bridges are numbered along the chain shown (N, C = ends). Roman numbers before positions name the chains, in order. [ ]: non-standard residue; d: D form. The star is where a group is joined. ξ: configuration not given here. TATA = O=C(CC[*:1])N1CN(C(=O)CC[*:2])CN(C(=O)CC[*:3])C1; Dolaproine = CO[C@@H]([C@@H]1CCCN1)[C@@H](C)C(=O)O; X1 = CC[C@H](C)C(C(CC(=O)[*:2])OC)N(C)[*:1]; 1Nal = N[C@@H](Cc1cccc2ccccc12)C(=O)O; X3 = O=C(CCCC(=O)[*:2])NCCC(=O)[*:1]; PABC = O=C(OCc1ccc(N[*:1])cc1)[*:2]; Hyp = O=C(O)[C@@H]1C[C@@H](O)CN1; hArg = N=C(N)NCCCC[C@H](N)C(=O)O; Cit = NC(=O)NCCC[C@H](N)C(=O)O; X2 = CC(N*)[C@@H](O)c1ccccc1; ξNMeV = CNC(C(=O)O)C(C)C; ξV = CC(C)C(N)C(=O)O; Sar = CNCC(=O)O

System: MDA-MB-468 xenograft
Test: Example 9.9: in vivo efficacy of BCY8245 alone or with BCY8234 in MDA-MB-468 xenograft (large tumors) in Balb/c nude mice
Parameters: species or system Mus Musculus
[1] = 3 mg/kg qw in combination with BCY8234 300 mg/kg qw, day 28

SMILES: CC[C@H](C)C(C(CC(=O)N1CCC[C@H]1[C@H](OC)[C@@H](C)C(=O)NC(C)[C@@H](O)c1ccccc1)OC)N(C)C(=O)[C@@H](NC(=O)C(C(C)C)N(C)C(=O)OCc1ccc(NC(=O)[C@H](CCCNC(N)=O)NC(=O)C(NC(=O)CCCC(=O)NCCC(=O)N(C)CC(=O)N(C)CC(=O)N(C)CC(=O)N(C)CC(=O)N(C)CC(=O)N(C)CC(=O)N(C)CC(=O)N(C)CC(=O)N(C)CC(=O)N(C)CC(=O)N[C@H]2CSCCC(=O)N3CN4CN(C3)C(=O)CCSC[C@H](NC(=O)[C@@H](CC(=O)O)NC(=O)[C@H](Cc3cccc5ccccc35)NC(=O)[C@@H]3CCCN3C2=O)C(=O)N[C@@H](CCSC)C(=O)N[C@@H](CCCCNC(=N)N)C(=O)N[C@@H](CC(=O)O)C(=O)N[C@@H](Cc2c[nH]c3ccccc23)C(=O)N[C@@H](CO)C(=O)N[C@@H]([C@@H](C)O)C(=O)N2CCC[C@H]2C(=O)N2C[C@H](O)C[C@H]2C(=O)N[C@@H](Cc2c[nH]c3ccccc23)C(=O)N[C@H](C(N)=O)CSCCC4=O)C(C)C)cc1)C(C)C (stereo partly drawn) [BCY8245, MMAE-PABC-Cit-Val-Glutaryl-BCY8234] (I: [Sar][Sar][Sar][Sar][Sar][Sar][Sar][Sar][Sar][Sar]CP[1Nal][dD]CM[hArg]DWSTP[Hyp]WC-NH2 / II: [ξV][Cit][PABC][ξNMeV]V[X1][Dolaproine]-X2; linker I:11-I:15-I:25 via TATA; linker I:N-II:N via X3)
- TGI (1 mg/kg qw, day 28): 126.6%
- Tumor volume (TV) (1 mg/kg qw, day 28): 384 mm^3
- TGI [1]: 234.0%
- Tumor volume (TV) [1]: 55 mm^3
- tumor relapse (in words) (3 mg/kg qw in combination with BCY8234 300 mg/kg qw, whole monitoring schedule): didn't showed any relapse
- tumor relapse (in words) (3 mg/kg qw, after ceasing the treatment): some tumor relapse
- TGI (3 mg/kg qw, day 28): 234.6%
- Tumor volume (TV) (3 mg/kg qw, day 28): 50 mm^3
- Tumor volume (1 mpk, qw, day 0 after the start of treatment): 466 mm^3
- Tumor volume (1 mpk, qw, day 2): 480 mm^3
- Tumor volume (1 mpk, qw, day 5): 453 mm^3
- Tumor volume (1 mpk, qw, day 7): 474 mm^3
- Tumor volume (1 mpk, qw, day 9): 446 mm^3
- Tumor volume (1 mpk, qw, day 12): 461 mm^3
- Tumor volume (1 mpk, qw, day 14): 460 mm^3
- Tumor volume (1 mpk, qw, day 16): 433 mm^3
- Tumor volume (1 mpk, qw, day 19): 412 mm^3
- Tumor volume (1 mpk, qw, day 21): 430 mm^3
- Tumor volume (1 mpk, qw, day 23): 421 mm^3
- Tumor volume (1 mpk, qw, day 26): 382 mm^3
- T/C (1 mpk, qw, day 28): 49.7%
- TGI (1 mpk, qw, day 28): 126.6%
- Tumor volume (1 mpk, qw, day 28): 384 mm^3
- Tumor volume (3 mpk, qw, day 0 after the start of treatment): 464 mm^3
- Tumor volume (3 mpk, qw, day 2): 451 mm^3
- Tumor volume (3 mpk, qw, day 5): 388 mm^3
- Tumor volume (3 mpk, qw, day 7): 333 mm^3
- Tumor volume (3 mpk, qw, day 9): 284 mm^3
- Tumor volume (3 mpk, qw, day 12): 168 mm^3
- Tumor volume (3 mpk, qw, day 14): 129 mm^3
- Tumor volume (3 mpk, qw, day 16): 93 mm^3
- Tumor volume (3 mpk, qw, day 19): 83 mm^3
- Tumor volume (3 mpk, qw, day 21): 71 mm^3
- Tumor volume (3 mpk, qw, day 23): 60 mm^3
- Tumor volume (3 mpk, qw, day 26): 49 mm^3
- T/C (3 mpk, qw, day 28): 6.4%
- TGI (3 mpk, qw, day 28): 234.6%
- Tumor volume (3 mpk, qw, day 28): 50 mm^3
- Tumor volume (Group1, Vehicle, dosed with 5 mpk BCY8245 on PG-D28, day 30): 625 ± 27 mm^3
- Tumor volume (Group1, Vehicle, dosed with 5 mpk BCY8245 on PG-D28, day 33): 477 ± 31 mm^3
- Tumor volume (Group1, Vehicle, dosed with 5 mpk BCY8245 on PG-D28, day 35): 405 ± 65 mm^3
- Tumor volume (Group1, Vehicle, dosed with 5 mpk BCY8245 on PG-D28, day 37): 237 ± 36 mm^3
- Tumor volume (Group1, Vehicle, dosed with 5 mpk BCY8245 on PG-D28, day 40): 148 ± 33 mm^3
- Tumor volume (Group1, Vehicle, dosed with 5 mpk BCY8245 on PG-D28, day 42): 142 ± 33 mm^3
- Tumor volume (Group1, Vehicle, dosed with 5 mpk BCY8245 on PG-D28, day 44): 132 ± 69 mm^3
- Tumor volume (Group1, Vehicle, dosed with 5 mpk BCY8245 on PG-D28, day 48): 146 ± 100 mm^3
- Tumor volume (Group1, Vehicle, dosed with 5 mpk BCY8245 on PG-D28, day 51): 171 ± 122 mm^3
- Tumor volume (Group1, Vehicle, dosed with 5 mpk BCY8245 on PG-D28, day 55): 227 ± 166 mm^3
- Tumor volume (Group1, Vehicle, dosed with 5 mpk BCY8245 on PG-D28, day 56): 264 ± 182 mm^3
- Tumor volume (Group1, Vehicle, dosed with 5 mpk BCY8245 on PG-D28, day 62): 288 ± 206 mm^3
- Tumor volume (Group 2, 1 mpk, change in 5 mpk on PG-D28, day 30): 351 ± 42 mm^3
- Tumor volume (Group 2, 1 mpk, change in 5 mpk on PG-D28, day 33): 213 ± 29 mm^3
- Tumor volume (Group 2, 1 mpk, change in 5 mpk on PG-D28, day 35): 151 ± 18 mm^3
- Tumor volume (Group 2, 1 mpk, change in 5 mpk on PG-D28, day 37): 98 ± 16 mm^3
- Tumor volume (Group 2, 1 mpk, change in 5 mpk on PG-D28, day 40): 89 ± 17 mm^3
- Tumor volume (Group 2, 1 mpk, change in 5 mpk on PG-D28, day 42): 95 ± 16 mm^3
- Tumor volume (Group 2, 1 mpk, change in 5 mpk on PG-D28, day 44): 103 ± 20 mm^3
- Tumor volume (Group 2, 1 mpk, change in 5 mpk on PG-D28, day 48): 106 ± 21 mm^3
- Tumor volume (Group 2, 1 mpk, change in 5 mpk on PG-D28, day 51): 103 ± 21 mm^3
- Tumor volume (Group 2, 1 mpk, change in 5 mpk on PG-D28, day 55): 104 ± 20 mm^3
- Tumor volume (Group 2, 1 mpk, change in 5 mpk on PG-D28, day 56): 120 ± 23 mm^3
- Tumor volume (Group3, 3 mpk, qw, day 30): 44 ± 18 mm^3
- Tumor volume (Group3, 3 mpk, qw, day 33): 43 ± 20 mm^3
- Tumor volume (Group3, 3 mpk, qw, day 35): 44 ± 20 mm^3
- Tumor volume (Group3, 3 mpk, qw, day 37): 50 ± 24 mm^3
- Tumor volume (Group3, 3 mpk, qw, day 40): 55 ± 29 mm^3
- Tumor volume (Group3, 3 mpk, qw, day 42): 66 ± 32 mm^3
